Results on 1 compound are retold here after PMC10180349 (Molecules, 2023).

One data set relates to 4T1. As to the kind of experiment: cells. The conditions noted are these: Mus musculus, 4T1, 48 h.
Data set [1] relates to MDA-MB-231 cells. As to the kind of experiment: Transmission electron microscopy of treated cells. Type of data set: cell-based, Human. The conditions noted are these: MDA-MB-231, 0.1 nM, 48 h. As to the method:
Ultrathin sections were isolated, stained with uranyl acetate and lead citrate for 10 min, and finally observed through the Hitachi H-7650 transmission electron microscope (Tokyo, Japan). The PTX-treated group was used as a positive control.

The nature of data set [2]: Acute-toxicity experiment, single dose via tail vein. The conditions noted are these: 20 mg/kg CrEL paclitaxel, Taxol (PTX), day 3, p < 0.001.
A short description of another data set: physchem. To be noted: water.
Data set [3] has as its system MDA-MB-231 cells. As to the kind of experiment: Annexin V-FITC/PI flow cytometry apoptosis assay. Type of data set: cell-based, Human. To be noted: 0.1 nM, 48 h, control 2.17% ± 0.76%. As to the method:
Cell apoptosis analysis was performed according to the manufacturer’s protocol of the Annexin V-FITC Detection kit (Beyotime, Shanghai, China). […] Finally, the samples were tested by flow cytometer (BD FACSCelesta) and analyzed using FlowJo Software (Tree Star Inc., Ashland, OR, USA). The PTX-treated group was used as a positive control.
(In general: A flow cytometer gives signals particle by particle.)

Data set [4] concerns microtubules in MDA-MB-231 cells. The data set can be described thus: Immunofluorescence staining of microtubules (α-tubulin antibody). Type of data set: cell-based, Human. To be noted: MDA-MB-231, 0.1 nM, 48 h. As to the method:
Cells were fixed with 4% paraformaldehyde for 20 min, permeabilized with 0.1%Triton X-100 for 5 min, and blocked with 1% BSA for 1.5 h. Next, cells were incubated with α-tubulin antibody (1:400 Abcam, AB52866) at 4 °C overnight, followed by the Alexa Fluor 488 conjugated goat anti-rabbit IgG secondary antibody (1:300, ZF-0511, Zhongshan Goldenbridge Biotechnology, Beijing, China). Finally, nuclei were stained with DAPI for 4 min. Stained cells were observed using a laser confocal microscope (LSM700; Zeiss, Gottingen, Germany). The PTX-treated group was used as a positive control.

Data set [5] in a line: Solubility experiment in water. The conditions noted are these: diluted to 5 mg/mL by water.
Another data set has as its system MCF-7. As to the kind of experiment: cells. To be noted: Homo sapiens, MCF7, 48 h.
The test system of data set [6] is MDA-MB-231 cells. The data set can be described thus: Cell cycle analysis (PI, flow cytometry). The class given is cell-based, Human. The conditions noted are these: 0.1 nM, 48 h, control 8.74 ± 0.60%. As to the method: Cell cycle assay was performed using the DNA Content Quantitation Assay (Solarbio, Beijing, China). […] Then, the fixed cells were incubated with RNase A solution at 37 °C for 30 min and stained with PI in the dark for 30 min at 4 °C. The red fluorescence was detected using a flow cytometer (BD FACSCalibur) at 488 nm and analyzed by FlowJo Software (Tree Star Inc, Ashland, OR, USA). The PTX-treated group was set as a positive control.

Data set [7] concerns MDA-MB-231 xenograft tumor tissue. The data set can be described thus: TUNEL assay of tumor slides. The class given is in vivo, Female BALB/c nude mice. The conditions noted are these: PTX-TTHA 6.87-13.73 mg/kg q3d; PTX 10 mg/kg q7d. As to the method: The tumor slides of MDA-MB-231 xenograft mice were deparaffinized and rehydrated as per the method described above. Then, the TUNEL assay was performed according to the manufacturer’s instructions. Briefly, slides were permeabilized with proteinase K for 20 min and blocked with 3% H2O2 for 10 min. After washing, slides were incubated with Biotin labeling solution for 1 h, and the nucleus was counterstained with DAPI for 1 min. The localized red fluorescence of the apoptotic cells was visualized by fluorescence microscopy. Two experienced pathologists randomly selected 10 (×200) fields for every slide and then analyzed them. The percentage of TUNEL-positive cells among total cells was semi-quantitatively measured with the Image-J software.

The next data set concerns MDA-MB-231. As to the kind of experiment: cells. The conditions noted are these: Homo sapiens, MDA-MB-231, 48 h.
For data set [8] the following is noted: cited from earlier work.

Take `CC(=O)O[C@H]1C(=O)[C@@]2(C)[C@H]([C@H](OC(=O)c3ccccc3)[C@]3(O)C[C@H](OC(=O)[C@H](O)[C@@H](NC(=O)c4ccccc4)c4ccccc4)C(C)=C1C3(C)C)[C@]1(OC(C)=O)CO[C@@H]1C[C@@H]2O` [PTX, Paclitaxel, reference compound]: the IC50 (in general, the concentration that inhibits the measured activity by half) amounted to 9.45 ± 1.34 nM in the data set with 4T1, 9.99 ± 0.94 nM with MCF-7 and 8.68 ± 0.75 nM in the data set with MDA-MB-231. Also, the “morphological changes of apoptosis (TEM)” value with MDA-MB-231 cells [1] is “remarkable cellular apoptosis-related characteristics were observed”. The “ALT, AST, Scr, WBC and NEUT values compared with controls” value in data set [2] is given as “significantly altered”. In addition, the solubility (commonly how much of the substance goes into solution per volume) in “physchem” is under 0.7 µg/mL. Moreover, the cell apoptosis rate with MDA-MB-231 cells [3] was 29.57% ± 3.31. The “microtubule fluorescence intensity compared with the control group” value in data set [4] is on record as “enhanced fluorescence intensity of microtubules”. Also, the “appearance of sample in water (solubility by photograph)” value in data set [5] is “almost insoluble in water”. Further, the “cells in G2/M phase” value in the data set on MDA-MB-231 cells [6] is given as 24.22 ± 0.70%. In addition, the “TUNEL signal of apoptotic cells in tumor tissue” value in data set [7] is listed as “strong red fluorescent signal”. In addition, the solubility in water in [8] is 0.3 to 0.5 µg/mL.
